Assay results from patent US10647747B2, “Cyclosporin derivatives and uses thereof” (S&T Global Inc., priority 2010, dated 2020).
pEC50: −log10 of the molar value. *1 amine or outer side, *2 acyl side, *3 side chain or, on linkers, in order; H or OH if unused. Where a SMILES comes first, the peptide text is derived from it. [ ]: non-standard residue; d: D form. The star is where a group is joined. X10 = CN(C(CC(C)(C)OCc1ccccc1)C(=O)[*:2])[*:1]; X3 = CC=CCC(C)C(O)C(C(=O)[*:2])N(C)[*:1]; X9 = C=CCOC(C)(C)CC(C(=O)[*:2])N(C)[*:1]; X13 = CCN(CC)CCCSC(C(=O)[*:2])N(C)[*:1]; X7 = CN(C(SCCCN1CCOCC1)C(=O)[*:2])[*:1]; NMeI = CC[CH](C)[CH](NC)C(=O)O; NMeL = CN[CH](CC(C)C)C(=O)O; NMeV = CN[CH](C(=O)O)C(C)C; Et2NCH2CH2 = CCN(CC)CC*; NMeC = CN[CH](CS)C(=O)O; Abu = CC[CH](N)C(=O)O

Each compound was assayed on HCV replicon in cell line ET (luc-ubi-neo/ET), Huh7 human hepatoma (assay: HCV subgenomic replicon assay, luciferase end point). Settings: HCV subgenomic replicon, cell line ET (luc-ubi-neo/ET) Huh7, luciferase end point; read-out: Antiviral activity EC50.
Assay type: cell-based
Compound `C/C=C/C[C@@H](C)[C@@H](O)[C@H]1C(=O)N[C@@H](CC)C(=O)N(C)[C@H](COCCCN2CCOCC2)C(=O)N(C)[C@@H](CC(C)(C)O)C(=O)N[C@@H](C(C)C)C(=O)N(C)[C@@H](CC(C)C)C(=O)N[C@@H](C)C(=O)N[C@H](C)C(=O)N(C)[C@@H](CC(C)C)C(=O)N(C)[C@@H](CC(C)C)C(=O)N(C)[C@@H](C(C)C)C(=O)N1C` [[(R)-(3-(N-Morpholino)propoxy)methyl-Sar]-3-[(γ-hydroxy)-N-MeLeu]-4-cyclosporin] has a pEC50 of 7.05.
Work on `C/C=C/C[C@@H](C)[C@@H](O)[C@H]1C(=O)N[C@@H](CC)C(=O)N(C)[C@H](COCCCN2CCCCC2)C(=O)N(C)[C@@H](CC(C)(C)O)C(=O)N[C@@H](C(C)C)C(=O)N(C)[C@@H](CC(C)C)C(=O)N[C@@H](C)C(=O)N[C@H](C)C(=O)N(C)[C@@H](CC(C)C)C(=O)N(C)[C@@H](CC(C)C)C(=O)N(C)[C@@H](C(C)C)C(=O)N1C` [[(R)-(3-(N-Piperidinyl)propoxy)methyl-Sar]-3-[(γ-hydroxy)-N-MeLeu]-4-cyclosporin] yielded a pEC50 of 6.82.
Work on `CC=CCC(C)C(O)C1C(=O)NC(CC)C(=O)N(C)C(SCCCN(CC)CC)C(=O)N(C)C(C(C)CC)C(=O)NC(C(C)C)C(=O)N(C)C(CC(C)C)C(=O)NC(C)C(=O)NC(C)C(=O)N(C)C(CC(C)C)C(=O)N(C)C(CC(C)C)C(=O)N(C)C(C(C)C)C(=O)N1C` [[(S)-3-(N,N-Diethylamino)propylthio-Sar]-3-[N-MeIle]-4-cyclosporin] (cyclo([X3][Abu][X13][NMeI]V[NMeL]AA[NMeL][NMeL][NMeV]); configuration not given here) yielded a pEC50 of 7.10.
`CC=CCC(C)C(O)C1C(=O)NC(CC)C(=O)N(C)C(SCCCN(CC)CC)C(=O)N(C)C(C(C)C)C(=O)NC(C(C)C)C(=O)N(C)C(CC(C)C)C(=O)NC(C)C(=O)NC(C)C(=O)N(C)C(CC(C)C)C(=O)N(C)C(CC(C)C)C(=O)N(C)C(C(C)C)C(=O)N1C` [[(S)-3-(N,N-Diethylamino)propylthio-Sar]-3-[N-MeVal]-4-cyclosporin] (cyclo([X3][Abu][X13][NMeV]V[NMeL]AA[NMeL][NMeL][NMeV]); configuration not given here) gave a pEC50 of 7.15.
In the case of `CC=CCC(C)C(O)C1C(=O)NC(CC)C(=O)N(C)C(CSCCN(CC)CC)C(=O)N(C)C(C(C)CC)C(=O)NC(C(C)C)C(=O)N(C)C(CC(C)C)C(=O)NC(C)C(=O)NC(C)C(=O)N(C)C(CC(C)C)C(=O)N(C)C(CC(C)C)C(=O)N(C)C(C(C)C)C(=O)N1C` [[(S)-(2-(N,N-Diethylamino)ethylthio)methyl-Sar]-3-[N-MeIle]-4-cyclosporin] (cyclo([X3][Abu][NMeC](Et2NCH2CH2)[NMeI]V[NMeL]AA[NMeL][NMeL][NMeV]); configuration not given here), the pEC50 was 7.00.
In the case of `CC=CCC(C)C(O)C1C(=O)NC(CC)C(=O)N(C)C(CSCCN(CC)CC)C(=O)N(C)C(C(C)C)C(=O)NC(C(C)C)C(=O)N(C)C(CC(C)C)C(=O)NC(C)C(=O)NC(C)C(=O)N(C)C(CC(C)C)C(=O)N(C)C(CC(C)C)C(=O)N(C)C(C(C)C)C(=O)N1C` [[(S)-(2-(N,N-Diethylamino)ethylthio)methyl-Sar]-3-[N-MeVal]-4-cyclosporin] (cyclo([X3][Abu][NMeC](Et2NCH2CH2)[NMeV]V[NMeL]AA[NMeL][NMeL][NMeV]); configuration not given here), the pEC50 was 6.85.
Work on `CC=CCC(C)C(O)C1C(=O)NC(CC)C(=O)N(C)C(SCCCN2CCOCC2)C(=O)N(C)C(C(C)C)C(=O)NC(C(C)C)C(=O)N(C)C(CC(C)C)C(=O)NC(C)C(=O)NC(C)C(=O)N(C)C(CC(C)C)C(=O)N(C)C(CC(C)C)C(=O)N(C)C(C(C)C)C(=O)N1C` [[(S)-(3-(N-Morpholino)propylthio-Sar]-3-[N-MeVal]-4-cyclosporin] (cyclo([X3][Abu][X7][NMeV]V[NMeL]AA[NMeL][NMeL][NMeV]); configuration not given here) yielded a pEC50 of 6.96.

Same assay, conditions: Hepatitis C virus, Huh-7, HCV subgenomic replicon, cell line ET (luc-ubi-neo/ET) Huh7, luciferase end point; read-out: Antiviral activity EC50
With `C/C=C/C[C@@H](C)[C@@H](O)[C@H]1C(=O)N[C@@H](CC)C(=O)N(C)[C@H](C)C(=O)N(CC)[C@@H](C(C)C)C(=O)N[C@@H](C(C)C)C(=O)N(C)[C@@H](CC(C)C)C(=O)N[C@@H](C)C(=O)N[C@H](C)C(=O)N(C)[C@@H](CC(C)C)C(=O)N(C)[C@@H](CC(C)C)C(=O)N(C)[C@@H](C(C)C)C(=O)N1C` [[D-N-MeAla]-3-[N-EtVal]-4-cyclosporin, reference compound] the pEC50 was 7.15.

Same assay, conditions: Hepatitis C virus, Huh-7, Table 16, HCV replicon luciferase; read-out: Antiviral activity EC50
Compound `C/C=C/C[C@@H](C)[C@@H](O)[C@H]1C(=O)N[C@@H](CC)C(=O)N(C)[C@H](C)C(=O)N(CC)[C@@H](C(C)C)C(=O)N[C@@H](C(C)C)C(=O)N(C)[C@@H](CC(C)C)C(=O)N[C@@H](C)C(=O)N[C@H](C)C(=O)N(C)[C@@H](CC(C)C)C(=O)N(C)[C@@H](CC(C)C)C(=O)N(C)[C@@H](C(C)C)C(=O)N1C` [[D-N-MeAla]-3-[N-EtVal]-4-cyclosporin, reference compound] has a pEC50 of 7.30.

Same assay, conditions: Hepatitis C virus, Huh-7, read-out: Antiviral activity EC50, Table 12, HCV replicon luciferase
`C/C=C/C[C@@H](C)[C@@H](O)[C@H]1C(=O)N[C@@H](CC)C(=O)N(C)CC(=O)N(C)[C@@H]([C@@H](C)CC)C(=O)N[C@@H](C(C)C)C(=O)N(C)[C@@H](CC(C)C)C(=O)N[C@@H](C)C(=O)N[C@H](C)C(=O)N(C)[C@@H](CC(C)C)C(=O)N(C)[C@@H](CC(C)C)C(=O)N(C)[C@@H](C(C)C)C(=O)N1C` [[N-MeIle]-4-cyclosporin (SDZ-NIM-811), N-MeIle-4-Cyclosporin, reference compound] showed a pEC50 of 6.82.
`C/C=C/C[C@@H](C)[C@@H](O)[C@H]1C(=O)N[C@@H](CC)C(=O)N(C)CC(=O)N(C)[C@@H](C(C)C)C(=O)N[C@@H](C(C)C)C(=O)N(C)[C@@H](CC(C)C)C(=O)N[C@@H](C)C(=O)N[C@H](C)C(=O)N(C)[C@@H](CC(C)C)C(=O)N(C)[C@@H](CC(C)C)C(=O)N(C)[C@@H](C(C)C)C(=O)N1C` [[N-MeVal]-4-cyclosporin (SDZ 220-384), N-MeVal-4-Cyclosporin, reference compound] was tested, and the pEC50 was 6.77.

Same assay, conditions: Table 13, HCV replicon luciferase; read-out: Antiviral activity EC50
`C=CCOC(C)(C)CC1C(=O)NC(C(C)C)C(=O)N(C)C(CC(C)C)C(=O)NC(C)C(=O)NC(C)C(=O)N(C)C(CC(C)C)C(=O)N(C)C(CC(C)C)C(=O)N(C)C(C(C)C)C(=O)N(C)C(C(O)C(C)CC=CC)C(=O)NC(CC)C(=O)N(C)C(SCCCN2CCOCC2)C(=O)N1C` [[(S)-3-(N-Morpholino)propylthio-Sar]-3-[(γ-allyloxy)-N-MeLeu]-4-cyclosporin] (cyclo([X3][Abu][X7][X9]V[NMeL]AA[NMeL][NMeL][NMeV]); configuration not given here) gave a pEC50 of 6.82.
With `CC=CCC(C)C(O)C1C(=O)NC(CC)C(=O)N(C)C(SCCCN2CCOCC2)C(=O)N(C)C(CC(C)(C)O)C(=O)NC(C(C)C)C(=O)N(C)C(CC(C)C)C(=O)NC(C)C(=O)NC(C)C(=O)N(C)C(CC(C)C)C(=O)N(C)C(CC(C)C)C(=O)N(C)C(C(C)C)C(=O)N1C` [[(S)-3-(N-Morpholino)propylthio-Sar]-3-[(γ-hydroxy)-N-MeLeu]-4-cyclosporin] the pEC50 was 7.30.
For `CC=CCC(C)C(O)C1C(=O)NC(CC)C(=O)N(C)C(SCCCN2CCOCC2)C(=O)N(C)C(CC(C)(C)OC)C(=O)NC(C(C)C)C(=O)N(C)C(CC(C)C)C(=O)NC(C)C(=O)NC(C)C(=O)N(C)C(CC(C)C)C(=O)N(C)C(CC(C)C)C(=O)N(C)C(C(C)C)C(=O)N1C` [[(S)-3-(N-Morpholino)propylthio-Sar]-3-[(γ-methoxy)-N-MeLeu]-4-cyclosporin], the pEC50 was 7.22.
With `CC=CCC(C)C(O)C1C(=O)NC(CC)C(=O)N(C)C(SCCCN2CCOCC2)C(=O)N(C)C(CC(C)(C)OCc2ccccc2)C(=O)NC(C(C)C)C(=O)N(C)C(CC(C)C)C(=O)NC(C)C(=O)NC(C)C(=O)N(C)C(CC(C)C)C(=O)N(C)C(CC(C)C)C(=O)N(C)C(C(C)C)C(=O)N1C` [[(S)-(3-(N-Morpholino)propylthio-Sar]-3-[(γ-benzyloxy)-N-MeLeu]-4-cyclosporin] (cyclo([X3][Abu][X7][X10]V[NMeL]AA[NMeL][NMeL][NMeV]); configuration not given here) the pEC50 was 6.55.
In the case of `CC=CCC(C)C(O)C1C(=O)NC(CC)C(=O)N(C)CC(=O)N(C)C(CC(C)(C)OC)C(=O)NC(C(C)C)C(=O)N(C)C(CC(C)C)C(=O)NC(C)C(=O)NC(C)C(=O)N(C)C(CC(C)C)C(=O)N(C)C(CC(C)C)C(=O)N(C)C(C(C)C)C(=O)N1C` (stereo not drawn) [[(γ-Methoxy)-N-MeLeu]-4-cyclosporin], the pEC50 was 6.74.
For `CCCCC(C)C(O)C1C(=O)NC(CC)C(=O)N(C)CC(=O)N(C)C(CC(C)(C)OC)C(=O)NC(C(C)C)C(=O)N(C)C(CC(C)C)C(=O)NC(C)C(=O)NC(C)C(=O)N(C)C(CC(C)C)C(=O)N(C)C(CC(C)C)C(=O)N(C)C(C(C)C)C(=O)N1C` (stereo not drawn) [[(γ-Methoxy)-N-MeLeu]-4-dihydrocyclosporin], the pEC50 was 6.46.
`C/C=C/C[C@@H](C)[C@@H](O)[C@H]1C(=O)N[C@@H](CC)C(=O)N(C)CC(=O)N(C)[C@@H](CC(C)(C)OCSC)C(=O)N[C@@H](C(C)C)C(=O)N(C)[C@@H](CC(C)C)C(=O)N[C@@H](C)C(=O)N[C@H](C)C(=O)N(C)[C@@H](CC(C)C)C(=O)N(C)[C@@H](CC(C)C)C(=O)N(C)[C@@H](C(C)C)C(=O)N1C` [[(γ-Methylthio)methoxy-N-MeLeu]-4-cyclospori] was tested, and the pEC50 was 6.40.
Compound `CC=CCC(C)C(O)C1C(=O)NC(CC)C(=O)N(C)CC(=O)N(C)C(CO)C(=O)NC(C(C)C)C(=O)N(C)C(CC(C)C)C(=O)NC(C)C(=O)NC(C)C(=O)N(C)C(CC(C)C)C(=O)N(C)C(CC(C)C)C(=O)N(C)C(C(C)C)C(=O)N1C` (stereo not drawn) [[N-MeSer]-4-cyclosporin] has a pEC50 of 6.25.

Same assay, conditions: Table 14, HCV replicon luciferase; read-out: Antiviral activity EC50
With `C/C=C/C[C@@H](C)[C@@H](O)[C@H]1C(=O)N[C@@H](CC)C(=O)N(C)[C@H](COCCCN2CCOCC2)C(=O)N(C)[C@@H](CC(C)(C)O)C(=O)N[C@@H](C(C)C)C(=O)N(C)[C@@H](CC(C)C)C(=O)N[C@@H](C)C(=O)N[C@H](C)C(=O)N(C)[C@@H](CC(C)C)C(=O)N(C)[C@@H](CC(C)C)C(=O)N(C)[C@@H](C(C)C)C(=O)N1C` [[(R)-(3-(N-Morpholino)propoxy)methyl-Sar]-3-[(γ-hydroxy)-NMeLeu]-4-cyclosporin] the pEC50 was 7.40.

Same assay, conditions: Table 16, HCV replicon luciferase; read-out: Antiviral activity EC50
`C/C=C/C[C@@H](C)[C@@H](O)[C@H]1C(=O)N[C@@H](CC)C(=O)N(C)[C@H](CSCCCCO)C(=O)N(C)[C@@H](CC(C)(C)O)C(=O)N[C@@H](C(C)C)C(=O)N(C)[C@@H](CC(C)C)C(=O)N[C@@H](C)C(=O)N[C@H](C)C(=O)N(C)[C@@H](CC(C)C)C(=O)N(C)[C@@H](CC(C)C)C(=O)N(C)[C@@H](C(C)C)C(=O)N1C` [[(S)-(4-Hydroxylbutylthio)methyl-Sar]-3-[(γ-hydroxy)-N-MeLeu]-4-cyclosporin] was tested, and the pEC50 was 7.70.
